pIC50: −log10 of the molar value. Like-named read-outs stand apart in the source and are kept apart here. Residues, ends and D or L forms follow the SMILES beside them. *: point of attachment. Cbz = O=C(OCc1ccccc1)*; CH2F = FC*
Experiments:
EV-D68 3C protease = EV-D68 3C protease (Human enterovirus D68, UniProt Q68T42); type: biochemical
poliovirus 3C protease = poliovirus 3C protease (Poliovirus type 1, UniProt P03300); test: biochemical; type: biochemical
EV-D68 2A protease [1] = molecular target: T1, EV-D68 2A protease (Human enterovirus D68, UniProt A0A097BW12); test: EV-D68 VP1·2A self-processing (intra-molecular cleavage) in translation extracts; type: biochemical
T1 sequence (A0A097BW12 862-1008): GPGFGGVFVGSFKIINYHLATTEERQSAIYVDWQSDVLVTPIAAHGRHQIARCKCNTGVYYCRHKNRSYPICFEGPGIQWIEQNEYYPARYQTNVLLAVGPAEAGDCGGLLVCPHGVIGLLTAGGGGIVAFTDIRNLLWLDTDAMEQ

EV-D68 2A protease [2] = molecular target: T1, EV-D68 2A protease; test: biochemical; type: biochemical
EV-D68 2A N84T mutant = molecular target: T2, EV-D68 2A N84T mutant (Human enterovirus D68, UniProt Q68T42, N945T); test: EV-D68 VP1·2A N84T (telaprevir resistant mutant) self-processing, pulse chase in translation extracts; type: biochemical
T2 sequence (Q68T42 553-1008 N945T): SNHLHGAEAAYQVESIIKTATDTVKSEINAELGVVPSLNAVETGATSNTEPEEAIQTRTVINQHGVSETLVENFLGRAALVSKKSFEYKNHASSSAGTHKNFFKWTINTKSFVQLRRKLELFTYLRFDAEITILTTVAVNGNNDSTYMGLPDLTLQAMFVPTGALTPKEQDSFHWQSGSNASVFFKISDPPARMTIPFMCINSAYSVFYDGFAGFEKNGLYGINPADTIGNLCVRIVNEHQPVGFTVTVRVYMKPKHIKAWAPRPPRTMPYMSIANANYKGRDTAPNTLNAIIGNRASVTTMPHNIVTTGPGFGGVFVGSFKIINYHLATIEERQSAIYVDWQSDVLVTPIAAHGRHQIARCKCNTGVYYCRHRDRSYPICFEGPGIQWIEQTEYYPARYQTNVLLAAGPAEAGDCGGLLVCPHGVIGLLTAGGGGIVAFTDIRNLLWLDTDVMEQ

poliovirus 2A protease [3] = molecular target: T3, poliovirus 2A protease (Poliovirus type 1, UniProt P03300)
Target sequence in this assay (P03300 580-1030 limits assumed): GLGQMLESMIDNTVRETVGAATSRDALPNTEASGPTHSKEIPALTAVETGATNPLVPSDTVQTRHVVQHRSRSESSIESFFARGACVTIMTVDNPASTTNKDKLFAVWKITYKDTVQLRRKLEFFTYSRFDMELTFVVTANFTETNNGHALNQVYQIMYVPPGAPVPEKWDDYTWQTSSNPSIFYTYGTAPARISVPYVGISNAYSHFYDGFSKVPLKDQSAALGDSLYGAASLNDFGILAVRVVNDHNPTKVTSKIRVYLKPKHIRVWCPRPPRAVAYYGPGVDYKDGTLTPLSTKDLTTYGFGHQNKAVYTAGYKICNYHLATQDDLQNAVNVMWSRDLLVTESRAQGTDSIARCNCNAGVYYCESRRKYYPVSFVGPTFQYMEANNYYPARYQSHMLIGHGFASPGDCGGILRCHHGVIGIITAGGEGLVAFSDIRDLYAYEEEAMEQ

rhinovirus protease = settings: cited from earlier work
poliovirus 2A protease [4] = molecular target: T3, poliovirus 2A protease; settings: read-out: IC50, eIF4G (inter-molecular) cleavage by poliovirus 2A
Target sequence in this assay (P03300 882-1030 limits assumed): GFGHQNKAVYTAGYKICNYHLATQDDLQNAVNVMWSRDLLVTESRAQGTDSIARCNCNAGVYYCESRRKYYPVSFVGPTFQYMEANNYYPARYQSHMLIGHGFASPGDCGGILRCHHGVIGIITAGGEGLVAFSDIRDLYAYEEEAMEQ

poliovirus 3C protease, sequence (P03300 1457-1748 limits assumed): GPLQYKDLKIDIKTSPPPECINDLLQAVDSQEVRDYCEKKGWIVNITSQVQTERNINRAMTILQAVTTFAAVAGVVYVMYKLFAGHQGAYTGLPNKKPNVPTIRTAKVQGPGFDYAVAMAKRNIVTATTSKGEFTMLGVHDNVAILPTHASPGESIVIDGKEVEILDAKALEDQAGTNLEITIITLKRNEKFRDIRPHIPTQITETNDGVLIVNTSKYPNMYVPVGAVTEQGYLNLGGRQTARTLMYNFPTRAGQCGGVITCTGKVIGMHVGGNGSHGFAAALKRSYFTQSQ
EV-D68 3C protease, sequence (Q68T42 1438-1731 limits assumed): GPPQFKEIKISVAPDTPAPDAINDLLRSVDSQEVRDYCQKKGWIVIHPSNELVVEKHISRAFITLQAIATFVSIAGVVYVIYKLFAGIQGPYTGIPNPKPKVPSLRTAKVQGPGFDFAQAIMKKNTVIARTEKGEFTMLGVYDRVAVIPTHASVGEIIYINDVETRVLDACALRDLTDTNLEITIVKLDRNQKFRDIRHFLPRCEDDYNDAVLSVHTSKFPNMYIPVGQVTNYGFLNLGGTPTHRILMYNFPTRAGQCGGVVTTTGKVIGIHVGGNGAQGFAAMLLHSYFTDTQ

## CCOC(=O)/C=C/[C@H](C[C@@H]1CCNC1=O)NC(=O)[C@@H](CC(=O)[C@@H](NC(=O)c1cc(C)on1)C(C)C)Cc1ccc(F)cc1 [Rupintrivir]
EV-D68 3C protease
  inhibition of EV-D68 3ABC processing, concentration curve: near-complete inhibition
  inhibition of self-processing, EV-D68 intra-molecular 3ABC processing, pulse chase: ~100%
Poliovirus 3C protease
  inhibition of poliovirus 3ABC processing, concentration curve: near-complete inhibition
  inhibition of self-processing, poliovirus inter-molecular 3ABC processing, pulse chase: ~100%
Poliovirus 3C protease; IC50, Poliovirus 3ABC (inter-molecular) cleavage
  pIC50: 6.12
Poliovirus 3C protease; IC50, inter-molecular cleavage of poliovirus 3ABC
  pIC50: ~6.12

## CCC[C@H](NC(=O)[C@@H]1[C@H]2CCC[C@H]2CN1C(=O)[C@@H](NC(=O)[C@@H](NC(=O)c1cnccn1)C1CCCCC1)C(C)(C)C)C(=O)C(=O)NC1CC1 [Telaprevir]
EV-D68 2A protease [1]; 1 µM telaprevir
  rate of VP1·2A self-processing, pulse chase, WT construct: significantly decreased
EV-D68 2A protease [1]; 1-µM telaprevir, maximum concentration testable
  inhibition of intra-molecular processing of VP1·2A: 20%
EV-D68 2A protease [1]; EV-D68 2A
  fold higher IC50 for intra-molecular VP1·2A cleavage than for inter-molecular eIF4G cleavage: more than 20 fold
EV-D68 2A protease [1]; approximate, translation extracts, drug added at initiation of translation
  pIC50: 5.40
EV-D68 2A protease [2]
  inhibition of inter-molecular processing of eIF4G: fully inhibited
EV-D68 2A protease [2]; IC50, eIF4G (inter-molecular) cleavage by EV-D68 2A
  pIC50: 6.72
EV-D68 2A protease [2]; IC50, inter-molecular cleavage of eIF4G by EV-D68 2A
  pIC50: ~6.70
EV-D68 2A N84T mutant
  N84T mutant self-processing, pulse chase in the presence of telaprevir: not inhibited

## CSCCC(NC(=O)C(C)NC(=O)C(NC(=O)OCc1ccccc1)C(C)C)C(=O)CF (stereo not drawn) [zVAM.fmk] (Cbz-Val-Ala-Met-CH2F; configuration not given here)
Poliovirus 2A protease [3]
  inhibition of VP1·2A cis cleavage, pulse chase: significant inhibition
Poliovirus 2A protease [3]; read-out: IC50, Poliovirus VP1·2A (intra-molecular) cleavage
  pIC50: 2.80
Poliovirus 2A protease [3]; read-out: IC50, intra-molecular poliovirus VP1·2A cleavage
  pIC50: ~2.80
Rhinovirus protease
  concentration of optimal effects on rhinovirus VP1·2A precursor processing and eIF4G cleavage: 200 µM
Poliovirus 2A protease [4]
  pIC50: 4.72
